Source: PMC5218480 (PLoS ONE, 2017)

Test system: MV-4-11 cells
Test: Gene expression microarray analysis (Affymetrix PrimeView) and GSEA
Format: cell-based, human
Set-up: RFU PODN (11730768_x_at) / Fold change /veh PODN (11730768_x_at) / RFU LINC00158 (11744669_a_at) / Fold change /veh LINC00158 (11744669_a_at) / RFU DUSP10 (11751237_a_at) / Fold change /veh DUSP10 (11751237_a_at) / RFU ID3 (11757404_x_at) / Fold change /veh ID3 (11757404_x_at) / RFU PLEKHG5 (11737974_s_at) / Fold change /veh PLEKHG5 (11737974_s_at) / RFU LRRC4B (11730491_at) / Fold change /veh LRRC4B (11730491_at) / RFU GIMAP4 (11747438_a_at) / Fold change /veh GIMAP4 (11747438_a_at) / RFU KRT8 (11758183_x_at) / Fold change /veh KRT8 (11758183_x_at) / RFU CNN1 (11734310_a_at) / Fold change /veh CNN1 (11734310_a_at) / RFU VPS37D (11726825_at) / Fold change /veh VPS37D (11726825_at) / RFU C10orf10 (11716522_x_at) / Fold change /veh C10orf10 (11716522_x_at) / RFU KIR2DL2 /// KIR2DL4 /// KIR2DL5A /// KIR2DL5B /// KIR2DS1 /// KIR2DS2 /// KIR2DS3 /// KIR2DS4 /// KIR3DL3 /// KIR3DL3 /// KIR3DS1 (11738374_at) / Fold change /veh KIR2DL2 /// KIR2DL4 /// KIR2DL5A /// KIR2DL5B /// KIR2DS1 /// KIR2DS2 /// KIR2DS3 /// KIR2DS4 /// KIR3DL3 /// KIR3DL3 /// KIR3DS1 (11738374_at) / RFU C1QL1 (11718748_at) / Fold change /veh C1QL1 (11718748_at) / RFU TMPRSS4 (11747572_a_at) / Fold change /veh TMPRSS4 (11747572_a_at) / RFU HAMP (11756126_x_at) / Fold change /veh HAMP (11756126_x_at) / RFU RNFT2 (11725882_a_at) / Fold change /veh RNFT2 (11725882_a_at) / RFU NR4A2 (11747474_a_at) / Fold change /veh NR4A2 (11747474_a_at) / RFU ABCC12 (11746883_a_at) / Fold change /veh ABCC12 (11746883_a_at) / RFU TMEM136 (11760407_x_at) / Fold change /veh TMEM136 (11760407_x_at) / RFU CLDN22 /// WWC2 (11732394_at) / Fold change /veh CLDN22 /// WWC2 (11732394_at) / RFU HLA-DPB1 (11760878_x_at) / Fold change /veh HLA-DPB1 (11760878_x_at) / RFU SPINT1 (11716480_a_at) / Fold change /veh SPINT1 (11716480_a_at) / RFU GAP43 (11754022_s_at) / Fold change /veh GAP43 (11754022_s_at) / RFU A4GNT (11735810_at) / Fold change /veh A4GNT (11735810_at) / RFU PRB3 (11715151_x_at) / Fold change /veh PRB3 (11715151_x_at) / RFU TUBB4B (11761932_at) / Fold change /veh TUBB4B (11761932_at) / RFU CAPN14 (11732068_a_at) / Fold change /veh CAPN14 (11732068_a_at) / RFU TMCC2 (11721928_a_at) / Fold change /veh TMCC2 (11721928_a_at) / RFU IRGQ (11745062_a_at) / Fold change /veh IRGQ (11745062_a_at) / RFU FAM174B (11720279_a_at) / Fold change /veh FAM174B (11720279_a_at) / RFU TMPRSS4 (11748680_a_at) / Fold change /veh TMPRSS4 (11748680_a_at) / RFU FAM212B (11763350_a_at) / Fold change /veh FAM212B (11763350_a_at) / RFU PLEKHG5 (11743358_a_at) / Fold change /veh PLEKHG5 (11743358_a_at) / RFU ZSCAN30 (11745921_a_at) / Fold change /veh ZSCAN30 (11745921_a_at) / RFU CMKLR1 (11741424_a_at) / Fold change /veh CMKLR1 (11741424_a_at) / RFU LOC101060620 /// MAPK8IP1 (11723275_at) / Fold change /veh LOC101060620 /// MAPK8IP1 (11723275_at) / RFU SPTSSB (11747773_x_at) / Fold change /veh SPTSSB (11747773_x_at) / RFU PRSS12 (11739890_at) / Fold change /veh PRSS12 (11739890_at) / RFU BIN1 (11741810_x_at) / Fold change /veh BIN1 (11741810_x_at) / RFU WNT11 (11732464_a_at) / Fold change /veh WNT11 (11732464_a_at) / RFU C10orf10 (11716521_a_at) / Fold change /veh C10orf10 (11716521_a_at) / RFU C5orf56 (11738089_at) / Fold change /veh C5orf56 (11738089_at) / RFU CYB561 (11721691_x_at) / Fold change /veh CYB561 (11721691_x_at) / RFU ANKRD19P (11752326_a_at) / Fold change /veh ANKRD19P (11752326_a_at) / RFU OR2T12 /// OR2T33 /// OR2T8 (11738714_s_at) / Fold change /veh OR2T12 /// OR2T33 /// OR2T8 (11738714_s_at) / RFU VCAN (11748164_a_at) / Fold change /veh VCAN (11748164_a_at) / RFU JSRP1 (11732532_at) / Fold change /veh JSRP1 (11732532_at) / RFU KRTAP10-11 (11738290_x_at) / Fold change /veh KRTAP10-11 (11738290_x_at) / RFU MYO3A (11730013_a_at) / Fold change /veh MYO3A (11730013_a_at) / RFU EBF3 (11725865_a_at) / Fold change /veh EBF3 (11725865_a_at) / RFU CAMK2N1 (11719241_x_at) / Fold change /veh CAMK2N1 (11719241_x_at) / RFU C5orf56 (11738088_a_at) / Fold change /veh C5orf56 (11738088_a_at) / RFU OLFML3 (11715873_a_at) / Fold change /veh OLFML3 (11715873_a_at) / RFU LOC100653217 /// NTM (11731650_a_at) / Fold change /veh LOC100653217 /// NTM (11731650_a_at) / RFU MAPK11 (11762145_a_at) / Fold change /veh MAPK11 (11762145_a_at) / RFU FIZ1 (11724087_x_at) / Fold change /veh FIZ1 (11724087_x_at) / RFU OASL (11726364_x_at) / Fold change /veh OASL (11726364_x_at) / RFU SOX15 (11748057_x_at) / Fold change /veh SOX15 (11748057_x_at) / RFU CD79A (11719716_a_at) / Fold change /veh CD79A (11719716_a_at) / RFU HIST1H1D (11736915_at) / Fold change /veh HIST1H1D (11736915_at) / RFU CASKIN2 (11723855_a_at) / Fold change /veh CASKIN2 (11723855_a_at) / RFU LOC730098 (11760151_x_at) / Fold change /veh LOC730098 (11760151_x_at) / RFU OR4N2 (11742367_at) / Fold change /veh OR4N2 (11742367_at) / RFU PRRT2 (11749266_a_at) / Fold change /veh PRRT2 (11749266_a_at) / RFU SNX32 (11753110_a_at) / Fold change /veh SNX32 (11753110_a_at) / RFU CDHR5 (11726645_a_at) / Fold change /veh CDHR5 (11726645_a_at) / RFU RCAN1 (11760418_a_at) / Fold change /veh RCAN1 (11760418_a_at) / RFU FAM167A (11723789_a_at) / Fold change /veh FAM167A (11723789_a_at) / RFU FAM26E (11764081_at) / Fold change /veh FAM26E (11764081_at) / RFU ISYNA1 (11749810_s_at) / Fold change /veh ISYNA1 (11749810_s_at) / RFU ACY1 (11761880_at) / Fold change /veh ACY1 (11761880_at) / RFU 11764098_at / Fold change /veh 11764098_at / RFU SAMD14 (11745864_x_at) / Fold change /veh SAMD14 (11745864_x_at) / RFU NPB (11741838_a_at) / Fold change /veh NPB (11741838_a_at) / RFU TMPRSS6 (11731388_a_at) / Fold change /veh TMPRSS6 (11731388_a_at) / RFU KRTAP10-2 (11738614_at) / Fold change /veh KRTAP10-2 (11738614_at) / RFU ARHGAP8 /// PRR5-ARHGAP8 (11727945_x_at) / Fold change /veh ARHGAP8 /// PRR5-ARHGAP8 (11727945_x_at) / RFU KRTAP5-7 /// NADSYN1 (11734609_at) / Fold change /veh KRTAP5-7 /// NADSYN1 (11734609_at) / RFU RASL12 (11751679_a_at) / Fold change /veh RASL12 (11751679_a_at) / RFU CDKN2B (11736163_a_at) / Fold change /veh CDKN2B (11736163_a_at) / RFU PRF1 (11729649_at) / Fold change /veh PRF1 (11729649_at) / RFU, ZNF638 /// ZNF638-IT1 / Fold change vs veh, ZNF638 /// ZNF638-IT1 / RFU, PANK3 / Fold change vs veh, PANK3 / RFU, SH3YL1 / Fold change vs veh, SH3YL1 / RFU, ZEB2 / Fold change vs veh, ZEB2 / RFU, NRIP1 / Fold change vs veh, NRIP1 / RFU, PTTG1IP / Fold change vs veh, PTTG1IP / RFU, CAPN2 / Fold change vs veh, CAPN2 / RFU, MED14 / Fold change vs veh, MED14 / RFU, SNORA58 / Fold change vs veh, SNORA58 / RFU, C1orf63 / Fold change vs veh, C1orf63 / RFU, LRRFIP1 / Fold change vs veh, LRRFIP1 / RFU, NDUFAF7 / Fold change vs veh, NDUFAF7 / RFU, SLC12A2 / Fold change vs veh, SLC12A2 / RFU, IBTK / Fold change vs veh, IBTK / RFU, ESF1 / Fold change vs veh, ESF1 / Fold change vs veh, TMEM50B / RFU, TAOK1 / Fold change vs veh, TAOK1 / RFU, ACBD3 / Fold change vs veh, ACBD3 / RFU, TMA16 / Fold change vs veh, TMA16 / RFU, RWDD3 / Fold change vs veh, RWDD3 / RFU, BCAT1 / Fold change vs veh, BCAT1 / RFU, EDEM3 / Fold change vs veh, EDEM3 / RFU, TMEM33 / Fold change vs veh, TMEM33 / RFU, WDR75 / Fold change vs veh, WDR75 / RFU, AHCTF1 / Fold change vs veh, AHCTF1 / RFU, TFRC / Fold change vs veh, TFRC / RFU, ZDHHC17 / Fold change vs veh, ZDHHC17 / RFU, NOM1 / Fold change vs veh, NOM1 / RFU, ARL8B / Fold change vs veh, ARL8B / RFU, ZBTB11 / Fold change vs veh, ZBTB11 / RFU, TAMM41 / Fold change vs veh, TAMM41 / RFU, KIAA1704 /// LOC100996395 / Fold change vs veh, KIAA1704 /// LOC100996395 / RFU, ING1 / Fold change vs veh, ING1 / RFU, TRMT61B / Fold change vs veh, TRMT61B / RFU, FUBP3 / Fold change vs veh, FUBP3 / RFU, TP53 / Fold change vs veh, TP53 / RFU, TNKS2 / Fold change vs veh, TNKS2 / RFU, ZFP14 / Fold change vs veh, ZFP14 / RFU, ACTR2 / Fold change vs veh, ACTR2 / RFU, PPP3R1 / Fold change vs veh, PPP3R1 / RFU, PIK3R1 / Fold change vs veh, PIK3R1 / RFU, HNRNPA1 / Fold change vs veh, HNRNPA1 / RFU, RNF170 / Fold change vs veh, RNF170 / RFU, ZNF28 / Fold change vs veh, ZNF28 / RFU, RNGTT / Fold change vs veh, RNGTT / RFU, OGT / Fold change vs veh, OGT / RFU, BRD1 / Fold change vs veh, BRD1 / RFU, MARS / Fold change vs veh, MARS / RFU, ZNF655 / Fold change vs veh, ZNF655 / RFU, FAHD1 / Fold change vs veh, FAHD1 / RFU, BDP1 / Fold change vs veh, BDP1 / RFU, LRRCC1 / Fold change vs veh, LRRCC1 / RFU, ARID1A / Fold change vs veh, ARID1A / RFU, ZNF146 / Fold change vs veh, ZNF146 / RFU, ZNF330 / Fold change vs veh, ZNF330 / RFU, GPN3 / Fold change vs veh, GPN3 / RFU, C9orf123 / Fold change vs veh, C9orf123 / RFU, N4BP2L2 / Fold change vs veh, N4BP2L2 / RFU, ARFIP1 / Fold change vs veh, ARFIP1 / RFU, FAM179B / Fold change vs veh, FAM179B / RFU, BCL10 / Fold change vs veh, BCL10 / RFU, UHRF1BP1L / Fold change vs veh, UHRF1BP1L / RFU, BET1 / Fold change vs veh, BET1 / RFU, CNOT2 / Fold change vs veh, CNOT2 / RFU, ZNF268 / Fold change vs veh, ZNF268 / Fold change vs veh, ZNF507 / RFU, DGCR2 / Fold change vs veh, DGCR2 / RFU, WDSUB1 / Fold change vs veh, WDSUB1 / Fold change vs veh, HSP90B1 /// MIR3652 / RFU, ADSS / Fold change vs veh, ADSS / RFU, GK / Fold change vs veh, GK / RFU, ZNF148 / Fold change vs veh, ZNF148 / RFU, TAF9 / Fold change vs veh, TAF9 / RFU, SLC1A5 / Fold change vs veh, SLC1A5 / RFU, SLMO2 / Fold change vs veh, SLMO2 / RFU, ABCC4 / Fold change vs veh, ABCC4 / RFU, LOC101060439 /// RAP1B / Fold change vs veh, LOC101060439 /// RAP1B / RFU, RFX7 / Fold change vs veh, RFX7 / RFU, GTPBP10 / Fold change vs veh, GTPBP10 / RFU, CNEP1R1 / Fold change vs veh, CNEP1R1 / RFU, BIVM-ERCC5 /// ERCC5 / Fold change vs veh, BIVM-ERCC5 /// ERCC5 / RFU, ILF3 / Fold change vs veh, ILF3 / RFU 11762660_at / Fold change /veh 11762660_at / RFU VCAN (11757783_s_at) / Fold change /veh VCAN (11757783_s_at) / RFU DDX43 (11728927_at) / Fold change /veh DDX43 (11728927_at) / RFU KRT8 (11758188_x_at) / Fold change /veh KRT8 (11758188_x_at) / RFU NKD1 (11759106_at) / Fold change /veh NKD1 (11759106_at) / RFU SRD5A1 (11742802_a_at) / Fold change /veh SRD5A1 (11742802_a_at) / RFU TPSAB1 /// TPSB2 (11721975_s_at) / Fold change /veh TPSAB1 /// TPSB2 (11721975_s_at) / RFU GSTM3 (11746129_a_at) / Fold change /veh GSTM3 (11746129_a_at) / RFU IL23R (11737362_x_at) / Fold change /veh IL23R (11737362_x_at) / RFU TMEM51 (11727254_a_at) / Fold change /veh TMEM51 (11727254_a_at) / RFU PIWIL2 (11732686_x_at) / Fold change /veh PIWIL2 (11732686_x_at) / RFU ORM1 (11744905_x_at) / Fold change /veh ORM1 (11744905_x_at) / RFU CCDC152 (11743942_at) / Fold change /veh CCDC152 (11743942_at) / RFU ECM1 (11717891_a_at) / Fold change /veh ECM1 (11717891_a_at) / RFU IL23R (11748794_a_at) / Fold change /veh IL23R (11748794_a_at) / RFU TNFAIP8L3 (11732012_x_at) / Fold change /veh TNFAIP8L3 (11732012_x_at) / RFU MBOAT4 (11741988_at) / Fold change /veh MBOAT4 (11741988_at) / RFU 11764193_at / Fold change /veh 11764193_at / RFU TMEM53 (11763286_at) / Fold change /veh TMEM53 (11763286_at) / RFU MAGEB2 (11727129_at) / Fold change /veh MAGEB2 (11727129_at) / RFU TMEM200A (11744735_a_at) / Fold change /veh TMEM200A (11744735_a_at) / RFU CCDC152 (11751479_a_at) / Fold change /veh CCDC152 (11751479_a_at) / RFU FAM211A (11726209_a_at) / Fold change /veh FAM211A (11726209_a_at) / RFU RGS16 (11746705_a_at) / Fold change /veh RGS16 (11746705_a_at) / RFU VCAN (11755009_s_at) / Fold change /veh VCAN (11755009_s_at) / RFU RHOB (11743442_s_at) / Fold change /veh RHOB (11743442_s_at) / RFU RGS16 (11720943_a_at) / Fold change /veh RGS16 (11720943_a_at) / RFU RGS16 (11720944_at) / Fold change /veh RGS16 (11720944_at) / RFU, VPS4B / Fold change vs veh, VPS4B / RFU, CREB1 / Fold change vs veh, CREB1 / RFU, DNAJC13 / Fold change vs veh, DNAJC13 / RFU, GNAQ / Fold change vs veh, GNAQ / RFU, CDK5R1 / Fold change vs veh, CDK5R1 / RFU, ZRANB3 / Fold change vs veh, ZRANB3 / RFU, CUL4A / Fold change vs veh, CUL4A / RFU, CCNY / Fold change vs veh, CCNY / RFU, UFL1 / Fold change vs veh, UFL1 / RFU, COG3 / Fold change vs veh, COG3 / RFU, DIAPH2 / Fold change vs veh, DIAPH2 / RFU, SKA2 / Fold change vs veh, SKA2 / RFU, AFF3 / Fold change vs veh, AFF3 / RFU, LMF1 / Fold change vs veh, LMF1 / RFU, IPO11 / Fold change vs veh, IPO11 / RFU, DFFB / Fold change vs veh, DFFB / RFU, FOXP1 / Fold change vs veh, FOXP1 / RFU, CARD8 / Fold change vs veh, CARD8 / RFU, STRN3 / Fold change vs veh, STRN3 / RFU, ADK / Fold change vs veh, ADK / RFU, RASSF2 / Fold change vs veh, RASSF2 / RFU, WIPF1 / Fold change vs veh, WIPF1 / RFU, LARP1B / Fold change vs veh, LARP1B / RFU, RASA1 / Fold change vs veh, RASA1 / RFU, RB1 / Fold change vs veh, RB1 / RFU, PPFIA1 / Fold change vs veh, PPFIA1 / RFU, MAT2A / Fold change vs veh, MAT2A / RFU, CCT5 / Fold change vs veh, CCT5 / RFU, WDR92 / Fold change vs veh, WDR92 / RFU, CUX1 / Fold change vs veh, CUX1 / RFU, TTC7A / Fold change vs veh, TTC7A / RFU, TMEM135 / Fold change vs veh, TMEM135 / RFU, DEPTOR / Fold change vs veh, DEPTOR / RFU, CPM / Fold change vs veh, CPM / RFU, DNAJB6 / Fold change vs veh, DNAJB6 / RFU, CACNA2D3 / Fold change vs veh, CACNA2D3 / RFU, DTX4 / Fold change vs veh, DTX4 / RFU, TFCP2 / Fold change vs veh, TFCP2 / RFU, GMCL1 /// GMCL1P1 / Fold change vs veh, GMCL1 /// GMCL1P1 / RFU, AEBP2 / Fold change vs veh, AEBP2 / RFU, SNHG1 /// SNORD22 /// SNORD25 /// SNORD26 /// SNORD27 /// SNORD28 /// SNORD29 /// SNORD31 / Fold change vs veh, SNHG1 /// SNORD22 /// SNORD25 /// SNORD26 /// SNORD27 /// SNORD28 /// SNORD29 /// SNORD31 / Fold change (Aza/veh), C12orf56 (ProbeSet 11735607_a_at) / Fold change (ACY-1035/veh), C12orf56 (ProbeSet 11735607_a_at) / Fold change (Aza/veh), FGFR1OP (ProbeSet 11751329_s_at) / Fold change (ACY-1035/veh), FGFR1OP (ProbeSet 11751329_s_at) / Fold change (Aza/veh), VPS36 (ProbeSet 11739960_a_at) / Fold change (ACY-1035/veh), VPS36 (ProbeSet 11739960_a_at) / RFU SYPL1 (11715823_x_at) / Fold change /veh SYPL1 (11715823_x_at) / RFU IGFBP7 (11715501_s_at) / Fold change /veh IGFBP7 (11715501_s_at) / RFU REEP3 (11722064_at) / Fold change /veh REEP3 (11722064_at) / RFU IGLL1 (11728026_x_at) / Fold change /veh IGLL1 (11728026_x_at): dose or concentration left out as unconfirmed
Settings: MV-4-11 cells, 48 hours

Nc1ncn([C@@H]2O[C@H](CO)[C@@H](O)[C@H]2O)c(=O)n1 [azacitidine]
RFU ID3 (11757404_x_at): 51.53 RFU
